Source: patent publication US10927115B2, “Substituted heterocycles for targeting Hsp90” (Duke University, priority 2012, dated 2021)

Tests used:
Hsp90 and GRP94 = experiment: Purinome captured on ATP Sepharose interrogated with compounds in parallel; eluted proteins identified by MS; type: binding, pig; settings: FIG. 3; SDS-PAGE silver staining, mass spectrometry
Text: The purinome was captured from pig mammary gland extract as described (Hughes et al., Bioorg Med Chem. 2012, 20(10):3298-3305) on gamma phosphate linked ATP Sepharose. Following extensive washing with physiological buffers to remove non-specifically associated proteins, the resin was divided equally and interrogated with the indicated compounds in parallel as described (Hughes et al 2012). All eluted proteins were characterized by SDS-PAGE and silver staining, and then identified by mass spectrometry. […] Key: GRP94, glucose regulated protein 94; Hsp90, heat shock protein 90; LAPT, lapatinimb; Hsp90 STD, purified Hsp90; 17-AAG, derivatized form of geldanamycin, BLK, vehicle control consisting of buffer containing 10% DMSO used to solubilize all compounds included in the test.

MCF7 cells = experiment: Compound 10 fluorescence in MCF7 cells with anti-Hsp90 antibody or competing compound 5; type: cell-based; settings: FIG. 6C
Description: In FIG. 6B, the compound was added in the presence of an antibody to Hsp90. […] DAPI (blue) highlights the nucleus of the cell. In FIG. 6 the green staining from compound 10 fluorescence appears white, while blue from the DAPI-stained nuclei appears gray.

Hsp90 [1] = experiment: Affinity resin capture of Hsp90 from pig mammary gland extract (SDS-PAGE silver stain, MS sequencing); type: binding; settings: 1 mM compound 5 pre-incubated in the tissue extract
Description: Several media were prepared as described in Example 7, using compounds 6, 7, 8 and 9. These resins were termed A, B, C and D respectively. To prepare the resin in each case, the appropriate compound was added at 1-10 μmol/gram of resin in minimal methanol.
The ability of each resin to selectively capture Hsp90 from pig mammary gland extract, a tissue shown to be high in ATP binding proteins including native forms of Hsp90, GRP94 and TRAP1, was evaluated. The resin was incubated in the protein solution then washed with a high salt buffer. The bound proteins were removed via an SDS boil procedure, separated by SDS-PAGE electrophoresis, located by silver staining and identified using mass spectrometry (MS) sequencing. […] In the case of resin E (Example 7), bound proteins were eluted with 25 mM sodium dithionite in phosphate-buffered saline.

BT474 cells = experiment: Competition of compound 10 signal by compound 5 in permeabilized cells (plate reader fluorescence); type: cell-based; settings: compound 5 0-10 μM; escin; 30 minutes; Ex488/Em522 nm; FIG. 9
Description: BT474 cells were incubated with varying doses of compound 5 (0 μM, 0.01 μM, […], 1 μM and 10 μM) in the presence of a fixed concentration of compound 10 ([…]) and a cell permeabilizing agent (escin) for 30 minutes. The cells were then washed to remove the free probe and cell extracts prepared from the homogenized cells. The amount of drug uptake was then measured by fluorescence (Ex488/Em522 nm) in a micro plate fluorescence reader.

GRP94 = molecular target: T1, GRP94 (Sus scrofa, UniProt Q29092); experiment: Elution of pig mammary gland proteins from gamma phosphate linked ATP Sepharose with increasing amounts of compound; type: binding; settings: FIG. 2
T1 construct: The ATP resin was charged with the pig mammary gland extract; from tissue; host or cells: pig mammary gland extract captured on gamma phosphate linked ATP Sepharose
T1 sequence (Q29092 22-804): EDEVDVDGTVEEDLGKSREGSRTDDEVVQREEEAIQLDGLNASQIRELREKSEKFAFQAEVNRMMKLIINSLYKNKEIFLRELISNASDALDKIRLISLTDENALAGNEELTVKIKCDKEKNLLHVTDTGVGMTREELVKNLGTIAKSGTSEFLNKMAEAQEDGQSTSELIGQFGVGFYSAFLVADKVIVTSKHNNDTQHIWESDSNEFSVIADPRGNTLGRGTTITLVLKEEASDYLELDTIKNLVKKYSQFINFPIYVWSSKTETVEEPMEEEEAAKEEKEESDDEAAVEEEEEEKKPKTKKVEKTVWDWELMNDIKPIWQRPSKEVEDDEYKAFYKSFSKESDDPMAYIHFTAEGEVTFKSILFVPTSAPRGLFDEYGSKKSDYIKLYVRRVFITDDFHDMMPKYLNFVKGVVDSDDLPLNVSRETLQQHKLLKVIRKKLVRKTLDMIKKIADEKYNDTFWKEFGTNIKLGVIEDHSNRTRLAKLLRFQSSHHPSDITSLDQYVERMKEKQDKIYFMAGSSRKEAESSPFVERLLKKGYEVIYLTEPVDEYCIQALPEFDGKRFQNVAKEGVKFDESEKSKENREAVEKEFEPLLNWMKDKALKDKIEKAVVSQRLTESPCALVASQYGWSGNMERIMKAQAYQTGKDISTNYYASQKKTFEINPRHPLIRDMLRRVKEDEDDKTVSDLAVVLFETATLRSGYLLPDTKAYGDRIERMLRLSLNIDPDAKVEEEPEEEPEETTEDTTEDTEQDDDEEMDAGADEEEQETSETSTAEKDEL
Text: (§1) The ATP resin was charged with the pig mammary gland extract and aliquots were distributed into individual wells.

Hsp90 [2] = experiment: as above; type: binding; settings: FIG. 2
Text: as §1

Row | Molecule | proteins recognized (eluted from ATP Sepharose) (Hsp90 and GRP94) | also measured
1 | 2-((19-di(ferrocenemethylamino)-4,7,10,13,16-pentaoxanonadecyl)amino)-4-(3,6,6-trimethyl-4-oxo-4,5,6,7-tetrahydro-1H-indazol-1-yl)benzamide [Compound 27] | only recognize Hsp90 | –
2 | 17-alkylamino-17-desmethoxygeldanamycin [Compound 17-AAG, reference compound] | specificity for both Hsp90 and GRP94 | –
3 | Cc1nn(-c2ccc(C(N)=O)c(N[C@H]3CC[C@H](O)CC3)c2)c2c1C(=O)CC(C)(C)C2 [Compound 5, 2-(((1r,4r)-4-Hydroxycyclohexyl)amino)-4-(3,6,6-trimethyl-4-oxo-4,5,6,7-tetrahydro-1H-indazol-1-yl)benzamide, reference compound] | specificity for both Hsp90 and GRP94 | competition of compound 10 fluorescence signal (MCF7 cells): competes away the fluorescence signal; competition of protein binding to the resins (Hsp90 [1]): clean exclusion of Hsp90 but not other proteins; competition of the signal from compound 10 (BT474 cells): effectively competed
4 | Cc1nn(-c2ccc(C(N)=O)c(NCCCOCCOCCOCCOCCOCCCN)c2)c2c1C(=O)CC(C)(C)C2 [Compound 8, 2-((19-Amino-4,7,10,13,16-pentaoxanonadecyl)amino)-4-(3,6,6-trimethyl-4-oxo-4,5,6,7-tetrahydro-1H-indazol-1-yl)benzamide] | only recognize Hsp90 | elution of GRP94 from ATP resin (GRP94): essentially no elution
5 | Cc1nn(-c2ccc(C(N)=O)c(NCCCOCCOCCOCCOCCOCCCNc3ccc([N+](=O)[O-])c4nonc34)c2)c2c1C(=O)CC(C)(C)C2 [Compound 11, 2-((19-((7-nitrobenzo[c][1,2,5]oxadiazol-4-yl)amino)-4,7,10,13,16-pentaoxanonadecyl)amino)-4-(3,6,6-trimethyl-4-oxo-4,5,6,7-tetrahydro-1H-indazol-1-yl)benzamide] | only recognize Hsp90 | –
6 | Cc1nn(-c2ccc(C(N)=O)c(NCCCOCCOCCOCCOCCO)c2)c2c1C(=O)CC(C)(C)C2 [Compound 19, 2-((1-hydroxy-3,6,9,12-tetraoxapentadecan-15-yl)amino)-4-(3,6,6-trimethyl-4-oxo-4,5,6,7-tetrahydro-1H-indazol-1-yl)benzamide] | only recognize Hsp90 | –
7 | Cc1nn(-c2ccc(C(N)=O)c(NCCCOCCOCCOCCOCCOCCCNc3cc(-n4nc(C)c5c4CC(C)(C)CC5=O)ccc3C(N)=O)c2)c2c1C(=O)CC(C)(C)C2 [Compound 20, 2,2′-(4,7,10,13,16-pentaoxanonadecane-1,19-diylbis(azanediyl))bis(4-(3,6,6-trimethyl-4-oxo-4,5,6,7-tetrahydro-1H-indazol-1-yl)benzamide)] | only recognize Hsp90 | –
8 | Cc1nn(-c2ccc(C(N)=O)c(N[C@H]3CC[C@H](N)CC3)c2)c2c1C(=O)CC(C)(C)C2 [Compound 28, 2-(((1r,4r)-4-aminocyclohexyl)amino)-4-(3,6,6-trimethyl-4-oxo-4,5,6,7-tetrahydro-1H-indazol-1-yl)benzamide] | only recognize Hsp90 | –
9 | Cc1nn(-c2ccc(C(N)=O)c(N[C@H]3CC[C@H]([N+](C)(C)C)CC3)c2)c2c1C(=O)CC(C)(C)C2 [Compound 29, (1r,4r)-4-((2-carbamoyl-5-(3,6,6-trimethyl-4-oxo-4,5,6,7-tetrahydro-1H-indazol-1-yl)phenyl)amino)-N,N,N-trimethylcyclohexanaminium] | only recognize Hsp90 | –
10 | CC(C)NCCCn1c(Sc2cc3c(cc2I)OCO3)nc2c(N)ncnc21 [PU-H71] | specificity for both Hsp90 and GRP94 | elution of GRP94 from ATP resin (GRP94): strong potency; elution of Hsp90 from ATP resin (Hsp90 [2]): strong potency
11 | CC1(C)CC(=O)c2c(C(F)(F)F)nn(-c3ccc(C(N)=O)c(N[C@H]4CC[C@H](O)CC4)c3)c2C1 [SNX-2112] | – | elution of GRP94 from ATP resin (GRP94): weaker affinity
